Columns and labels:
Type in all cases: cell-based
[1] = test system: CHO cells stably expressing pylRS and tRNApyl and an IgG directed against her2/neu containing an amber codon; assay: Growth and viability of pylRS/tRNApyl cell line treated with lys azide and dnnAA
Excerpt: To examine whether the dnnAAs of the invention could function to improve the viability of cells containing pylRS and tRNApyl we monitored the growth and viability of a cell line, stably expressing pylRS and tRNApyl. For this assay CHO cells stably expressing pylRS and tRNApyl and an IgG directed against her2/neu containing an amber codon in the heavy chain, shown to effectively incorporate nnAA into the expressed IgG thus producing an antibody containing a nnAA, were used for this experiment. Despite a high expression level of pylRS/tRNApyl pair, this cell line has very robust cell growth characteristics when grown in medium lacking nnAA. The presence of a highly expressed target containing an amber codon likely has a protective effect on the cells by supplying them with high levels of amber codons that absorb the amber suppression activity and protects the cells from the effects of background amber suppression at essential genes. However, upon addition of the nnAA (lys-azide) to the growth medium, and activation of the amber suppression machinery, a decrease in cell growth rate is observed. […] To determine whether a dnnAA can rescue this effect, cells cultured in serum free medium were grown to a cell density of 0.5×10^6 cells/mL and subsequently treated with 0.5 mM lys azide alone or in combination with 2 Mm dnnAA. Cell viability and cell numbers were monitored daily over seven days. Cells treated with lys azide alone reached a cell density just below 1×10^6 cells/mL on day 3 after nnAA addition and remained at this density for the remainder of the assay (seven days) (FIG. 15A) The lack of growth was not likely due to loss of viability as the culture retained high viability throughout the experiment (˜70% viable cells) (FIG. 15B) Cultures treated with 2 mM Compound of formula VIIB.4, or 2 mM Formula VIIB.1 in combination with 0.5 mM lys-azide supported continued growth of the culture that reached over 1.5×10^6 cells/mL and retained a cell viability of 90%.

pylRS/tRNA pair = biological target: T1, pylRS/tRNA pair (Methanosarcina mazei, UniProt Q8PWY1); assay: GFP assay: translational testing of pyrrolysine analogs as nnAAs; settings: nnAA 2 mM, 2-3 days
T1 construct: expressed in transfected cells; host or cells: HEK293 clone 3H7
T1 sequence (Q8PWY1 whole entry): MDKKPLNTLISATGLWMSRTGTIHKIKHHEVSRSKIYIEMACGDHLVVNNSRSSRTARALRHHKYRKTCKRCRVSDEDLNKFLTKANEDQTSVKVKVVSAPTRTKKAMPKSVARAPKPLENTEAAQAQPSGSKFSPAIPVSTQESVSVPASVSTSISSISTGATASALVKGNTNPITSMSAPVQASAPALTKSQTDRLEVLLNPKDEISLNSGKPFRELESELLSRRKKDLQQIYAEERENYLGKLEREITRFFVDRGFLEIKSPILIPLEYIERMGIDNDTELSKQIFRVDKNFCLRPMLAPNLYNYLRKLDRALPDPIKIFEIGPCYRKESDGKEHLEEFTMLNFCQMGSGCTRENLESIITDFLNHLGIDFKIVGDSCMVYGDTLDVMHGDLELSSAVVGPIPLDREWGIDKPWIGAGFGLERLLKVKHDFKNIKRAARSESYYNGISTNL
Excerpt: An in vitro cell based assay was developed to assess the compatibility of the pylRS/tRNA pair and the pyrrolysine analogs of the present invention (nnAAs) by and the efficiency of nnAAs integration into a target protein. For this, HEK293 cells stably expressing pylRS (3H7) were transiently transfected with plasmids for the expression of tRNApyl and a reporter construct encoding GFPY40 (containing amber codon in place of tyrosine at amino acid residue number 40 (where 1 is the initiator methionine)) using standard transfection protocols. Transfected cells were incubated with nnAAs at 2 mM for 2-3 days GFP production was analyzed qualitatively by visual inspection under the microscope. The GFP fluorescence was quantified by flow cytometry using an Accuri flow cytometer and the geometric mean of the fluorescent cells determined.
This cell based assay was used to determine whether the different nnAAs were suitable substrates for the pylRS and allowed its translation into a target protein. Cells expressing the PylRS/tRNApyl pair and containing a vector encoding the GFPY40 reporter gene were incubated in the presence of the nnAAs. nnAAs that are readily utilized by the PylRS/tRNApyl pair support the translation of the nnAA into the amber site of GFP and allow read-through of the gene producing full length GFP (fluorescent protein). The fluorescence intensity of the cells depends on the efficiency of nnAA incorporation. Thus, nnAAs that are poorly utilized produce weakly fluorescent or non-fluorescing cells. […] Furthermore, the relative expression levels in each sample was compared to those generated by substrates known to be efficiently utilized by pylRS.

pylRS = biological target: T2, pylRS (Methanosarcina mazei, UniProt Q8PWY1); assay: In vitro GFPY40 functional assay: dnnAA competition with lys azide in HEK293 cells stably expressing pylRS; settings: for reduction of GFP expression relative to samples lacking dnnAA (geometric mean fluorescence intensity): lys azide with 0.5 mM, 1 mM and 2 mM dnnAA
T2 construct: expressed in transfected cells
T2 sequence (Q8PWY1 whole entry): as above
Excerpt: Effective dnnAAs were identified by their ability to compete with a high affinity substrate for pylRS (lys-azide) in an in vitro assay, for their ability to reduce background amber suppression levels observed with a reporter protein, and for their ability to improve the viability and function of cells previously selected for high pylRS/tRNA activity.
To identify analogues that could effectively compete for pylRS binding with lys-azide, dnnAAs were first tested for function in an in vitro functional assay based on the ability of cells expressing WT pylRS and tRNApyl to introduce a nnAA at a target site in the reporter protein GFPY40. This reporter contains an amber codon in its open reading frame that, in the absence of amber suppression, generates a truncated protein that is not fluorescent. In the event of amber suppression, a full length GFP protein is generated that is detectable by fluorescence detection methods. In this assay, HEK293 cells stably expressing pylRS, were transiently transfected with a tRNA expression construct and the GFPY40 reporter cassette. Cells were then incubated with 0.5 mM lys azide in the presence or absence of different concentrations of dnnAA ranging from 0.5 mM to 2 mM. GFP fluorescence levels were then quantified by flow cytometry. For this assay the proportion of fluorescent cells in each condition was determined and plotted. As the dnnAAs are expected to compete with the nnAA (lys-azide) for pylRS/tRNA binding, an effective dnnAA should reduce or prevent the expression of full length GFP (as described above dnnAAs can be delivered by the tRNA to the amber site, but cannot propagate protein synthesis).
A similar in vitro assay was used to gauge the effectiveness of the dnnAAs of Formula VIIB listed in Table 1 where a description of the amino acids tested and a summary of the results are shown For this assay the geometric mean fluorescence intensity of each sample was determined by flow cytometry and plotted. For each dnnAA tested control cells transfected with wild type GFP were measured as a positive control. In addition cells transfected with the reporter GFPY40 and exposed to 0.5 mM lys azide or 2 mM lys azide were used to determine maximal GFP expression levels in the absence of an inhibitor. In each case robust GFP expression levels were observed. To test whether any of the dnnAA could reduce the efficacy of GFP expression, cells were incubated in the presence of 0.5 mM, 1 mM and 2 mM […]. […] Thus, dnnAAs of the present invention can compete with the lys-azide nnAA for binding to the pylRS and interfere with the physiological mechanism of nnAA introduction. Cells transfected with the pylRS/tRNA pair and the GFPY40 reporter construct but not exposed to either lys-azide or a dnnAA were used to determine levels of background amber suppression and used as a negative control. In each case low GFP expression levels were observed.

[2] = test system: background amber suppression; assay: Background amber suppression (GFPY40 reporter, pylRS/tRNApyl, dnnAA without nnAA); settings: for reduction in background amber suppression levels: dnnAA at 0.5 mM, 1 mM and 2 mM; for % Reduction at 2 mM Decoy: reduction in GFP expression relative to control not exposed to dnnAA, 3 days
Experimental: The competitive assay for dnnAA inhibition in the presence of a high affinity substrate identified dnnAAs that compete for binding with to the pylRS and thus are specific inhibitors of the pylRS/tRNA. However, the decoy nnAA is intended to reduce the levels of background amber suppression in the absence of nnAA. To determine if background amber suppression levels could be reduced, we incubated cells containing the GFPY40 reporter construct and the pylRS/tRNApyl pair in medium containing one of the dnnAAs. To do this, HEK293 cells stably expressing pylRS were transiently transfected with a tRNA expression construct and the GFPY40 reporter cassette. After 3 days of incubation, cells were assayed for expression of GFP by flow cytometry and geometric mean fluorescence intensity of the samples determined. We have previously observed that cells containing the full complement of the pylRS/tRNA amber suppression system show detectable expression of the GFP reporter construct that is above what is observed in cells lacking the amber suppression system. […] To identify dnnAAs capable of reducing background amber suppression levels the transfected cells were incubated with each of the dnnAAs at 0.5 mM, 1 mM and 2 mM and GFP levels measured by flow cytometry.
The decrease in background amber suppression dependent GFP expression was dose dependent and improved as the dnnAA concentration increased. […] This feature is an attractive characteristic for platform development as it enables the repression of background amber suppression but the system can be activated upon addition of a strong pylRS substrate such as lys-azide. […] Their efficacy was quantified by the reduction in GFP expression relative to a control sample (not exposed to dnnAA) and the data are summarized in Table 1.

[3] = Formula V analogs, geometric mean
[4] = 2 mM dnnAA with 0.5 mM lys-azide
[5] = 2 mM dnnAA with 0.5 mM lys-azide, seven days

[N-]=[N+]=NCCOC(=O)NCCCC[C@H](N)C(=O)O [Formula V.1, (2S)-2-amino-6-{[(2-azidoethoxy)carbonyl]amino}hexanoic acid] was tested, and the viable cells ([1]; 0.5 mM lys azide alone) was about 70%, the cell density ([1]; 0.5 mM lys azide alone, day 3 to day 7) was “below 1 ×10^6 cells/mL” and the “Positive GFP” value (pylRS/tRNA pair; Formula V analogs) was “Yes”. For the same compound, the MFI (pylRS/tRNA pair; [3]) was 931,289 and the MFI (pylRS/tRNA pair; Formula V analogs, geometric mean, listed as V.1) was 931289.

C=CCNC(=O)OCCCC[C@H](N)C(=O)O [Formula VI.3, (2S)-2-amino-6-{[(prop-2-en-1-yl)carbamoyl]oxy}hexanoic acid] was tested, and the “Positive GFP Assay” value (pylRS/tRNA pair; Formula VI analogs) was “incorporated in the GFP reporter gene and yield green cells and Yes”.

C=CCOC(=O)NCCCCCC(=O)O [Formula VIIB.1, 6-{[(prop-2-en-1-yloxy)carbonyl]amino}hexanoic acid] was tested, and the “prevention of cytostatic effects of amber suppression activation” value [1, 4] was “prevent the cytostatic effects”, the cell viability [1, 5] was 90% and the “reduction of GFP expression relative to samples lacking dnnAA (geometric mean fluorescence intensity)” value (pylRS) was “greatest reduction of GFP expression”. The “reduction in background amber suppression levels” value [2] was “reduction in the background amber suppression levels” and the “% Reduction at 2 mM Decoy” value [2] was 62.5%.

For O=C(O)CCCCCNC(=O)OCCCl [Formula VIIB.3, 6-{[(2-chloroethoxy)carbonyl]amino}hexanoic acid], the cell density [1, 5] was < 0.5 ×10^6 cells/mL, the cell viability [1, 5] was 30-40% and the “reduction of GFP expression relative to samples lacking dnnAA (geometric mean fluorescence intensity)” value (pylRS) was “greatest reduction of GFP expression”. The “reduction in background amber suppression levels” value [2] was “reduction in the background amber suppression levels” and the “% Reduction at 2 mM Decoy” value [2] was 49.7%.

For C#CCOC(=O)NCCCC[C@H](N)C(=O)O [Formula V.2, (2S)-2-amino-6-{[(prop-2-yn-1-yloxy)carbonyl]amino}hexanoic acid], the “Positive GFP” value (pylRS/tRNA pair; Formula V analogs) was “Yes”, the MFI (pylRS/tRNA pair; [3]) was 1,676,250 and the MFI (pylRS/tRNA pair; Formula V analogs, geometric mean, listed as V.2) was 1676250.

With C#CCOC(=O)NCCCCCC(=O)O [Formula VIIB.5, 6-{[(prop-2-yn-1-yloxy)carbonyl]amino}hexanoic acid] the “reduction of GFP expression relative to samples lacking dnnAA (geometric mean fluorescence intensity)” value (pylRS) was “relative reduction in GFP expression was much lower”, the “reduction in background amber suppression levels” value [2] was “reduction in the background amber suppression levels” and the “% Reduction at 2 mM Decoy” value [2] was 35%. For the same compound, the “% Reduction at 2 mM Decoy” value ([2]; listed as VIIB.5) was 35.0%.

With [N-]=[N+]=NCCNC(=O)OCCCC[C@H](N)C(=O)O [Formula VI.1, (2S)-2-amino-6-{[(2-azidoethyl)carbamoyl]oxy}hexanoic acid] the MFI (pylRS/tRNA pair; Formula VI analogs) was 904206 and the “Positive GFP Assay” value (pylRS/tRNA pair; Formula VI analogs) was “incorporated in the GFP reporter gene and yield green cells and Yes”.

With [N-]=[N+]=NCCOC(=O)NCCCCCC(=O)O [Formula VIIB.6, 6-{[(2-azidoethoxy)carbonyl]amino}hexanoic acid] the “reduction of GFP expression relative to samples lacking dnnAA (geometric mean fluorescence intensity)” value (pylRS) was “greatest reduction of GFP expression”, the “reduction in background amber suppression levels” value [2] was “reduction in the background amber suppression levels” and the “% Reduction at 2 mM Decoy” value [2] was 32%. For the same compound, the “% Reduction at 2 mM Decoy” value ([2]; listed as VIIB.6) was 32.7%.

With CC(C)(C)OC(=O)NCCCCCC(=O)O [Formula VIIB.4, 6-{[(tert-butoxy)carbonyl]amino}hexanoic acid] the “prevention of cytostatic effects of amber suppression activation” value [1, 4] was “prevent the cytostatic effects”, the cell viability [1, 5] was 90% and the “number of fluorescent cells (GFPY40)” value (pylRS; 0.5 mM lys azide with dnnAA 0.5 mM to 2 mM) was “concomitant reduction in the number of fluorescent cells”. For the same compound, the “GFP expression with dnnAA alone (amber codon readthrough)” value (pylRS; dnnAA alone, no lys azide) was “did not induce GFP expression”, the “effect on GFPwt expression (non-specific effects)” value (pylRS; reporter lacking an amber codon) was “no effect on protein expression” and the “% Reduction at 2 mM Decoy” value [2] was 46.3%.
